Assay results as given in PubChem BioAssay AID1845210 (Molecular Pharmacology Branch, DTP, NCI, 2023).

Test system: NCI-H226 complex tumor spheroids, viability
Experiment: Anticancer human tumor NCI-H226 cell line growth inhibition;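 further: spheroids exposed to compound for 7 days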;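 on viability, T/C: 100% = DMSO vehicle control viability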
Conditions: for IC50: curve of first compound; for viability, T/C: stronger effect = lower value
Procedure, shortened: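 Complex tumor spheroids combined malignant cells with endothelial cells and mesenchymal stem cells. DNA-damaging drugs and DNA repair inhibitors were tested alone and in combination, at half-log dilutions down from clinical Cmax (top 10 microM if Cmax unknown), 0.25% DMSO final.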

[1] = second compound 1 µM, first compound 0.00949 µM
[2] = second compound 1 µM, first compound 0.03 µM
[3] = second compound 1 µM, first compound 0.0949 µM
[4] = second compound 1 µM, first compound 0.3 µM
[5] = second compound 1 µM, first compound 0.949 µM
[6] = second compound 1 µM, first compound 3 µM
[7] = second compound 3.16 µM, first compound 0.00949 µM
[8] = second compound 3.16 µM, first compound 0.03 µM
[9] = second compound 3.16 µM, first compound 0.0949 µM
[10] = second compound 3.16 µM, first compound 0.3 µM
[11] = second compound 3.16 µM, first compound 0.949 µM
[12] = second compound 3.16 µM, first compound 3 µM
[13] = second compound 10 µM, first compound 0.00949 µM
[14] = second compound 10 µM, first compound 0.03 µM
[15] = second compound 10 µM, first compound 0.0949 µM
[16] = second compound 10 µM, first compound 0.3 µM
[17] = second compound 10 µM, first compound 0.949 µM
[18] = second compound 10 µM, first compound 3 µM
[19] = second compound 31.6 µM, first compound 0.00949 µM
[20] = second compound 31.6 µM, first compound 0.03 µM
[21] = second compound 31.6 µM, first compound 0.0949 µM
[22] = second compound 31.6 µM, first compound 0.3 µM
[23] = second compound 31.6 µM, first compound 0.949 µM
[24] = second compound 31.6 µM, first compound 3 µM
[25] = second compound 100 µM, first compound 0.00949 µM
[26] = second compound 100 µM, first compound 0.03 µM
[27] = second compound 100 µM, first compound 0.0949 µM
[28] = second compound 100 µM, first compound 0.3 µM
[29] = second compound 100 µM, first compound 0.949 µM
[30] = second compound 100 µM, first compound 3 µM

Compound	IC50 (second compound 1 µM) [µM]	IC50 (second compound 3.16 µM) [µM]	IC50 (second compound 10 µM) [µM]	IC50 (second compound 31.6 µM) [µM]	IC50 (second compound 100 µM) [µM]	viability, T/C [3] [%]	viability, T/C [4] [%]	viability, T/C [5] [%]	viability, T/C [6] [%]	viability, T/C [9] [%]	viability, T/C [10] [%]	viability, T/C [11] [%]	viability, T/C [12] [%]	viability, T/C [15] [%]	viability, T/C [16] [%]	viability, T/C [17] [%]	viability, T/C [18] [%]	viability, T/C [21] [%]	viability, T/C [22] [%]	viability, T/C [23] [%]	also measured
CNCc1ccc(-c2cc(-c3nc(-c4ccc(S(=O)(=O)C(C)C)cc4)cnc3N)on2)cc1 + Cn1nnc2c(C(N)=O)ncn2c1=O	0.756	0.717	0.755	1.03	1.37	138	140	30.7	0.26	127	134	27.6	0.51	131	128	31.8	0.23	144	123	53.7	viability, T/C [1]: 110%; viability, T/C [2]: 125%; viability, T/C [7]: 96.1%; viability, T/C [8]: 119%; viability, T/C [13]: 117%; viability, T/C [14]: 117%; viability, T/C [19]: 110%; viability, T/C [20]: 117%; viability, T/C [24]: 1.75%; viability, T/C [25]: 119%; viability, T/C [26]: 125%; viability, T/C [27]: 123%; viability, T/C [28]: 114%; viability, T/C [29]: 73.3%; viability, T/C [30]: 0.35%
Cc1sc2c(c1C)C(c1ccc(Cl)cc1)=NC(CC(=O)Nc1ccc(O)cc1)c1nnc(C)n1-2 (stereo not given) + Cn1nnc2c(C(N)=O)ncn2c1=O	0.959	0.808	1	1.27	1.57	74.9	68.4	48.8	40.3	81.1	63.2	49.4	39.6	76.8	66.4	46.8	42.5	70.2	71	52	viability, T/C [1]: 83.4%; viability, T/C [2]: 85%; viability, T/C [7]: 79.2%; viability, T/C [8]: 78.7%; viability, T/C [13]: 90.6%; viability, T/C [14]: 78.3%; viability, T/C [19]: 87.1%; viability, T/C [20]: 80.2%; viability, T/C [24]: 38.5%; viability, T/C [25]: 92.7%; viability, T/C [26]: 80.2%; viability, T/C [27]: 84.8%; viability, T/C [28]: 67.8%; viability, T/C [29]: 55.4%; viability, T/C [30]: 42.5%
Cn1ncnc1[C@H]1c2n[nH]c(=O)c3cc(F)cc(c23)N[C@@H]1c1ccc(F)cc1 + Cn1nnc2c(C(N)=O)ncn2c1=O	> 3	> 3	> 3	> 3	> 3	99.4	91.2	85.8	97.8	94.8	85.6	93.1	105	86.8	88.6	89.5	97.5	96.4	91.8	82.3	viability, T/C [1]: 101%; viability, T/C [2]: 103%; viability, T/C [7]: 105%; viability, T/C [8]: 55.1%; viability, T/C [13]: 108%; viability, T/C [14]: 89.9%; viability, T/C [19]: 101%; viability, T/C [20]: 95.2%; viability, T/C [24]: 90.7%; viability, T/C [25]: 106%; viability, T/C [26]: 108%; viability, T/C [27]: 95.8%; viability, T/C [28]: 87.1%; viability, T/C [29]: 100%; viability, T/C [30]: 93.5%
O=C(c1cc(Cc2n[nH]c(=O)c3ccccc23)ccc1F)N1CCN(C(=O)C2CC2)CC1 + Cn1nnc2c(C(N)=O)ncn2c1=O	> 30	> 30	> 30	> 30	> 30	99.9	99.8	107	104	105	96.7	105	95.4	112	104	95.1	101	98.3	101	110	viability, T/C (second compound 1 µM, first compound 9.49 µM): 99.2%; viability, T/C (second compound 1 µM, first compound 30 µM): 86.4%; viability, T/C (second compound 3.16 µM, first compound 9.49 µM): 81.9%; viability, T/C (second compound 3.16 µM, first compound 30 µM): 80.3%; viability, T/C (second compound 10 µM, first compound 9.49 µM): 84.6%; viability, T/C (second compound 10 µM, first compound 30 µM): 77.3%; viability, T/C [24]: 95.1%; viability, T/C (second compound 31.6 µM, first compound 9.49 µM): 84.6%; viability, T/C (second compound 31.6 µM, first compound 30 µM): 82%; viability, T/C [27]: 114%; viability, T/C [28]: 113%; viability, T/C [29]: 125%; viability, T/C [30]: 99.3%; viability, T/C (second compound 100 µM, first compound 9.49 µM): 97.8%; viability, T/C (second compound 100 µM, first compound 30 µM): 80.5%
